Results published in US20210052537A1, “COLITIS AMELIORATING AGENT” (ASTA PHARMACEUTICALS, CO., LTD., priority 2018, published 2021).
Several values for one entry are separate records, joined by “and”; a condition that tells them apart may be missing. Identical values can stand only once.

What was measured:
Oxa-induced colitis = assay: Oxazolone (Oxa)-induced colitis mouse model; assay type: in vivo; settings: for Colon length compared with Vehicle group / Colon wet weight compared with Vehicle group: Group Nos. 3 to 6 of Table 7, in words; for Colon length / Colon weight (wet weight per length): 6 days, day 7, mean ± SD
Source text: In this Example, mouse models to which oxazolone (4-ethoxymethylene-2-phenyl-2-oxazolin-5-on, hereinafter, Oxa) is used will be described as colitis models. When Oxa was first applied to skin, subsequently administered enterally after a certain period of time, an experimental ulcerative colitis model similar to human ulcerative colitis in terms of not only symptoms such as suppression of body weight increase, blood in stools, and anemia and formation of colon erosion but also immune cells was built (Non-Patent Literature 4). A suppression effect of Compound X on colitis in such a model as the test model showing pathological conditions more similar to human ulcerative colitis was examined. For the examination items, the length and weight of the colon were examined as changes in colon properties are widely known to occur also in this model.
For treatment, Balb/c, male mice were purchased from CHARLES RIVER LABORATORIES JAPAN, INC. in accordance with previous literature (Non-Patent Literature 5) and 8-week old mice with no abnormal general conditions during quarantine and acclimation period were used for the experiment. After acclimation, the animals were divided in such a way as to be 1 mouse per cage. Oxa used in the experiment was purchased from Sigma.
Fur at back of the neck was shaved in an area of 1.5×1.5 cm under anesthesia, and 150 μL (a 100% ethanol solution) of 3% (wt/vol) Oxa was added using a pipette and applied between the shoulders to sensitize (Day 1). The mice were kept under such a typical breeding environment, fasted for 16 hours from Day 7 (water supply was continued), and subsequently on Day 8 100 μL of a solution of 1% (wt/vol) Oxa in 50% ethanol was transanally administered into the rectum (3.5 cm from the anus) using a catheter under anesthesia. Hereinafter, the above treatment is described as Oxa treatment. After treatment, typical feeding breeding was carried out.
Starting on the day following intrarectal administration of Oxa, test substances were orally administered (once daily, for 6 days). 5-Aminosalicylic acid (hereinafter 5-ASA, Tokyo Chemical Industry, Co., Ltd.) and prednisolone (hereinafter, PSL, Sigma), which are anti-inflammatory agents used for treating ulcerative colitis, were used as positive controls for the test. After group division, each of the test substances of Table 6 was suspended in a solution of 0.5% sodium carboxymethyl cellulose (hereinafter, CMC, Nacalai Tesque Inc.) in such a way as to be each treatment of Table 6 and orally administered once daily. […] These control groups, Groups 1 and 2, were orally administered, as the test substance, with the 0.5% CMC solution which was used as the medium.
The test started with 6 mice in Group No. 1 and 9 mice each in Group Nos. 2 to 6. After the treatment started, death of animals in Group Nos. 2 to 6 due to the cause considered enteritis from Oxa treatment was observed and thus 6 mice in Group Nos. 1 and 3, and 5 mice in Group Nos. 2 and 6, and 7 mice in Group Nos. 4 and 5 were finally used for analysis.
(§1) It is generally acknowledged as a known fact that Oxa treatment causes colon tissue changes such as the length of colon is shortened while the weight increases. For evaluating the therapeutic effect of Compound X, the length and weight of the colon were measured. The mice were euthanized under anesthesia on day 7 of Oxa treatment and dissected to remove the colon. The removed colon was quickly measured for a length in a relaxed state. Subsequently, feces in the intestinal tract were removed and sufficiently washed with phosphate buffered saline (Wako Pure Chemical Industries, Ltd.) and measured for a wet weight.

DSS-induced colitis = DSS-induced colitis mouse model (experimental ulcerative colitis); assay type: in vivo; settings: for Fecal scoring average value: score 0-3
Experimental: In this Example, mouse models to which dextran sulfate sodium salt (DSS) is used will be described as colitis models. When DSS is administered by being mixed in drinking water of the mouse, an experimental ulcerative colitis model similar to human ulcerative colitis in terms of symptoms such as suppression of body weight increase, blood in stools, and anemia and formation of colon erosion and further lacking intestinal lesion was build (Non-Patent Literature 3). A suppression effect of Compound X on colitis in such a model as the representative colitis model was examined. For the evaluation items, recovery from diarrhea and body weight loss by colitis, and the length and weight of the colon were examined as changes in colon properties, which are widely known to occur by DSS-induced colitis.
For treatment, C57BL/6J, male mice were purchased from CHARLES RIVER LABORATORIES JAPAN, INC. in accordance with previous literature (Non-Patent Literature 2) and 5-week old mice with no abnormal general conditions during quarantine and acclimation period were used for the experiment. After acclimation, the animals were divided in such a way as to be 1 mouse per cage. DSS used in the experiment having a molecular weight of from 36,000 to 50,000 Da was purchased from MP Bio Japan. DSS was added to tap water in such a way as to be 3% and suspended for causing colitis. The suspension was prepared once every 3 days and freely provided to each of the mice as water supply. A solution from which DSS was removed was provided as water supply to a non-pathological control group.
After group division, each of the test substances of Table 1 was suspended in a solution of 0.5% sodium carboxymethyl cellulose (hereinafter, CMC, Nacalai Tesque Inc.) in such a way as to be each treatment of Table 1 and orally administered once daily. […] These control groups, Groups 1 and 2, were orally administered, as the test substance, with the 0.5% CMC solution used as the medium.
Drinking water after the group division was typical water for drinking.
The test started with 6 mice in Group No. 1 and 10 mice each in Group Nos. 2 to 6.
Body weights were measured on the DSS administration starting day (day −5), DSS administration last day (day 0), on day 3, day 5, day 8, and day 10 of test substance administration.
The therapeutic effect was evaluated by observing changes in blood in stools caused by enteritis as the body weight recovery alone can be considered that the body weight increase might have been promoted simply by the growth. Mice feces were observed on the DSS administration starting day (day-5), DSS administration last day (day 0), on day 3, day 5, day 8, and day 10 of test substance administration and scored in accordance with the criteria of Table 2.
as §1, with “For” for “It is generally acknowledged as a known fact that Oxa treatment causes colon tissue changes such as the length of colon is shortened while the weight increases. For”, “10” for “7”, “test substance administration” for “Oxa treatment”

[1] = Oxa treatment + 5 mg/kg/day oral, 5 mg/kg/day
[2] = DSS + 50 mg/kg/day oral, day 3, mean ± SD
[3] = DSS + 50 mg/kg/day oral, day 5, mean ± SD
[4] = Oxa treatment + 50 mg/kg/day oral, 50 mg/kg/day

Compound	Colon length compared with Vehicle group (Oxa-induced colitis)	Colon wet weight compared with Vehicle group (Oxa-induced colitis)	Colon length (Oxa-induced colitis; [1])	Colon weight (wet weight per length) (Oxa-induced colitis; [1])	Body weight recovery compared with the DSS administration only (DSS-induced colitis; 50 mg/kg/day oral, in words)	Time-dependent changes in blood feces score versus DSS administration group (DSS-induced colitis; 50 mg/kg/day oral, in words)	Fecal scoring average value (DSS-induced colitis; DSS + 50 mg/kg/day oral, day 0 (DSS last day), mean ± SD)	Body weight (DSS-induced colitis; [2]) [g]	Fecal scoring average value (DSS-induced colitis; [2])	Body weight (DSS-induced colitis; [3]) [g]	Fecal scoring average value (DSS-induced colitis; [3])	Fecal scoring average value (DSS-induced colitis; DSS + 50 mg/kg/day oral, day 8, mean ± SD)	Colon length (DSS-induced colitis; DSS + 50 mg/kg/day oral, day 10, mean ± SD, 50 mg/kg/day)	Fecal scoring average value (DSS-induced colitis; DSS + 50 mg/kg/day oral, day 10, mean ± SD)	Fecal scoring average value (DSS-induced colitis; DSS + 50 mg/kg/day oral, day −5 (before test substance), mean ± SD)	Colon length compared with DSS group (DSS-induced colitis; Group Nos. 3 to 5 (1, 10, 100 mg/kg/day) and Group No. 6 (50 mg/kg/day), in words)	Colon wet weight compared with DSS group (DSS-induced colitis; all treated groups of Table 5, in words)	Colon length (Oxa-induced colitis; [4])	Colon weight (wet weight per length) (Oxa-induced colitis; [4])
C[C@]12C=CC(=O)C=C1CC[C@@H]1[C@@H]2[C@@H](O)C[C@@]2(C)[C@H]1CC[C@]2(O)C(=O)CO [PSL, prednisolone]	longer length of the colon than Vehicle group	suppressed weight increases compared with Vehicle group	8.20 cm and 8.20 ± 0.52 cm	3.37 mg/mm and 3.37 ± 0.36 mg/mm	–	–	–	–	–	–	–	–	–	–	–	–	–	–	–
Nc1ccc(O)c(C(=O)O)c1 [Compound 5-ASA, 5-Aminosalicylic acid, reference compound]	longer length of the colon than Vehicle group	suppressed weight increases compared with Vehicle group	–	–	significant body weight recovery	did not have a difference	1.0 ± 0.0	15.5 ± 1.0	1.5 ± 0.5	16.4 ± 1.7	1.8 ± 1.0	0.0 ± 0.0	6.54 cm and 6.54 ± 0.29 cm	0.0 ± 0.0	0.0 ± 0.0	longer length of the colon than DSS group	suppressed weight increases compared with DSS group	7.41 cm and 7.41 ± 0.37 cm	4.12 mg/mm and 4.12 ± 0.56 mg/mm
